ChEMBL document CHEMBL1134446, “Polyamine analogue antidiarrheals: a structure-activity study” (J Med Chem, 2001)
“And” between values parts separate entries of the source, which are not always exact repeats. Equal entries are not always repeated.

Columns and labels:
Canis familiaris [1] = assay: Spermine Distribution in kidney was determined after DESPM dosing of 6.0 mg/kg/day for 4.5 days in dog(cu dose-52.4) and sacrificed at 10 days PLD(cu dose-27 mg/kg); assay type: ADME, organism-based, Canis lupus familiaris; settings: in vivo, 240 h
Canis familiaris [2] = assay: Spermine Distribution in kidney was determined after DESPM dosing of 8.0 mg/kg/day for 4.5 days in dog(cu dose-52.4) and sacrificed at 10 days PLD(cu dose-36 mg/kg); assay type: ADME, organism-based, Canis lupus familiaris; settings: in vivo, 240 h
Canis familiaris [3] = assay: putrescine Distribution in liver was determined after DESPM dosing of 4 mg/kg/day for 13 days in dog(cu dose-52.4) and sacrificed at 10 days PLD(cu dose-52 mg/kg); assay type: ADME, organism-based, Canis lupus familiaris; settings: in vivo, 240 h
Canis familiaris [4] = assay: putrescine Distribution in liver was determined after DESPM dosing of 4 mg/kg/day for 13 days in dog(cu dose-52.4) and sacrificed at 75 days PLD(cu dose-52 mg/kg); assay type: ADME, organism-based, Canis lupus familiaris; settings: in vivo, 1800 h
Canis familiaris [5] = assay: putrescine Distribution in liver was determined after DESPM dosing of 8.0 mg/kg/day for 4.5 days in dog(cu dose-52.4) and sacrificed at 75 days PLD(cu dose-36 mg/kg); assay type: ADME, organism-based, Canis lupus familiaris; settings: in vivo, 1800 h
Canis familiaris [6] = assay: Spermidine Distribution in kidney was determined after DESPM dosing of 1.87 mg/kg/day for 28 days in dog(cu dose-52.4) and sacrificed at 10 days PLD(cu dose-52.4 mg/kg); assay type: ADME, organism-based, Canis lupus familiaris; settings: in vivo, 240 h
Canis familiaris [7] = assay: Spermine Distribution in liver was determined after DESPM dosing of 8.0 mg/kg/day for 4.5 days in dog(cu dose-52.4) and sacrificed at 10 days PLD(cu dose-36 mg/kg); assay type: ADME, organism-based, Canis lupus familiaris; settings: in vivo, 240 h
Canis familiaris [8] = assay: MESPM/MEHSPH Distribution in liver was determined after DESPM dosing of 8.0 mg/kg/day for 4.5 days in dog(cu dose-52.4) and sacrificed at 10 days PLD(cu dose-36 mg/kg); assay type: ADME, organism-based, Canis lupus familiaris; settings: in vivo, 240 h
Canis familiaris [9] = assay: MESPM/MEHSPH Distribution in liver was determined after DESPM dosing of 8.0 mg/kg/day for 4.5 days in dog(cu dose-52.4) and sacrificed at 75 days PLD(cu dose-36 mg/kg); assay type: ADME, organism-based, Canis lupus familiaris; settings: in vivo, 1800 h
Canis familiaris [10] = assay: putrescine Distribution in kidney was determined after DESPM dosing of 1.87 mg/kg/day for 28 days in dog and sacrificed at 75 days PLD(cu dose-52.4 mg/kg); assay type: ADME, organism-based, Canis lupus familiaris; settings: in vivo, 1800 h
Canis familiaris [11] = assay: Spermidine Distribution in liver was determined after DESPM dosing of 8.0 mg/kg/day for 4.5 days in dog(cu dose-52.4) and sacrificed at 10 days PLD(cu dose-36 mg/kg); assay type: ADME, organism-based, Canis lupus familiaris; settings: in vivo, 240 h
Canis familiaris [12] = assay: Spermidine Distribution in liver was determined after DESPM dosing of 8.0 mg/kg/day for 4.5 days in dog(cu dose-52.4) and sacrificed at 75 days PLD(cu dose-36 mg/kg); assay type: ADME, organism-based, Canis lupus familiaris; settings: in vivo, 1800 h
Canis familiaris [13] = assay: Spermine Distribution in kidney was determined after DESPM dosing of 1.87 mg/kg/day for 28 days in dog(cu dose-52.4) and sacrificed at 75 days PLD(cu dose-52.4 mg/kg); assay type: ADME, organism-based, Canis lupus familiaris; settings: in vivo, 1800 h
Canis familiaris [14] = assay: Spermine Distribution in kidney was determined after DESPM dosing of 4 mg/kg/day for 13 days in dog(cu dose-52.4) and sacrificed at 75 days PLD(cu dose-52 mg/kg); assay type: ADME, organism-based, Canis lupus familiaris; settings: in vivo, 1800 h
Canis familiaris [15] = assay: Spermidine Distribution in kidney was determined after DESPM dosing of 6.0 mg/kg/day for 4.5 days in dog(cu dose-52.4) and sacrificed at 75 days PLD(cu dose-27 mg/kg); assay type: ADME, organism-based, Canis lupus familiaris; settings: in vivo, 1800 h
Canis familiaris [16] = assay: Spermidine Distribution in kidney was determined after DESPM dosing of 8.0 mg/kg/day for 4.5 days in dog(cu dose-52.4) and sacrificed at 10 days PLD(cu dose-36 mg/kg); assay type: ADME, organism-based, Canis lupus familiaris; settings: in vivo, 240 h
Canis familiaris [17] = assay: MESPM/MEHSPH Distribution in kidney was determined after DESPM dosing of 1.87 mg/kg/day for 28 days in dog(cu dose-52.4) and sacrificed at 10 days PLD(cu dose-52.4 mg/kg); assay type: ADME, organism-based, Canis lupus familiaris; settings: in vivo, 240 h
Rattus norvegicus [18] = assay: Stool output of rat over the 6-h collection period when a dose of 4.7 mg/kg (11.6 administered; assay type: functional
Canis familiaris [19] = assay: MESPM/MEHSPH Distribution in kidney was determined after DESPM dosing of 6.0 mg/kg/day for 4.5 days in dog(cu dose-52.4) and sacrificed at 75 days PLD(cu dose-27 mg/kg); assay type: ADME, organism-based, Canis lupus familiaris; settings: in vivo, 1800 h
Canis familiaris [20] = assay: MESPM/MEHSPH Distribution in kidney was determined after DESPM dosing of 8.0 mg/kg/day for 4.5 days in dog(cu dose-52.4) and sacrificed at 10 days PLD(cu dose-36 mg/kg); assay type: ADME, organism-based, Canis lupus familiaris; settings: in vivo, 240 h
Canis familiaris [21] = assay: MESPM/MEHSPH Distribution in liver was determined after DESPM dosing of 1.87 mg/kg/day for 28 days in dog(cu dose-52.4) and sacrificed at 10 days PLD(cu dose-52.4 mg/kg); assay type: ADME, organism-based, Canis lupus familiaris; settings: in vivo, 240 h
Canis familiaris [22] = assay: MESPM/MEHSPH Distribution in liver was determined after DESPM dosing of 6.0 mg/kg/day for 4.5 days in dog(cu dose-52.4) and sacrificed at 10 days PLD(cu dose-27 mg/kg); assay type: ADME, organism-based, Canis lupus familiaris; settings: in vivo, 240 h
Rattus norvegicus [23] = assay: Weight loss of rat over the 6-h experimental period when a dose of 9.4 mg/kg (23.3 administered; assay type: functional
Rattus norvegicus [24] = assay: Percent reduction was determined by using the ratio of mean of treated animal to that of control animal at a dose of 23.5 mg/kg; assay type: functional
Rattus norvegicus [25] = assay: Percent reduction was determined by using the ratio of mean of treated animal to that of control animal at a dose of 47 mg/kg; assay type: functional
Rattus norvegicus [26] = assay: Percent reduction was determined by using the ratio of mean of treated animal to that of control animal at a dose of 9.4 mg/kg; assay type: functional
Rattus norvegicus [27] = assay: Stool output of rat over the 6-h collection period when a dose of 0 mg/kg (0 administered; assay type: functional
Rattus norvegicus [28] = assay: Stool output of rat over the 6-h collection period when a dose of 14.3 mg/kg (35.4 administered; assay type: functional
Canis familiaris [29] = assay: putrescine Distribution in kidney was determined after DESPM dosing of 6.0 mg/kg/day for 4.5 days in dog and sacrificed at 10 days PLD(cu dose-27 mg/kg); assay type: ADME, organism-based, Canis lupus familiaris; settings: in vivo, 240 h
Canis familiaris [30] = assay: putrescine Distribution in liver was determined after DEHSPM dosing of 2.0 mg/kg/day for 29 days in dog(cu dose-52.4) and sacrificed at 10 days PLD([…]); assay type: ADME, organism-based, Canis lupus familiaris; settings: in vivo, 240 h
Canis familiaris [31] = assay: Spermine Distribution in kidney was determined after DEHSPM dosing of 2.0 mg/kg/day for 29 days in dog(cu dose-52.4) and sacrificed at 10 days PLD(cu dose-58 mg/kg); assay type: ADME, organism-based, Canis lupus familiaris; settings: in vivo, 240 h
Canis familiaris [32] = assay: HSPM Distribution in liver was determined after DEHSPM dosing of 2.0 mg/kg/day for 29 days in dog(cu dose-52.4) and sacrificed at 10 days PLD(cu dose-58 mg/kg); assay type: ADME, organism-based, Canis lupus familiaris; settings: in vivo, 240 h
Canis familiaris [33] = assay: Spermine Distribution in liver was determined after DEHSPM dosing of 2.0 mg/kg/day for 29 days in dog(cu dose-52.4) and sacrificed at 10 days PLD(cu dose-58 mg/kg); assay type: ADME, organism-based, Canis lupus familiaris; settings: in vivo, 240 h

SMILES: CCNCCCNCCCCNCCCNCC [BIS(ETHYL)SPERMINE]
- Wet weight of tissue (Canis familiaris [1]): 654 nM/g
- Wet weight of tissue (Canis familiaris [2]): 784 nM/g
- Wet weight of tissue (Canis familiaris [3]): 82 nM/g
- Wet weight of tissue (Canis familiaris [4]): 62 nM/g
- Wet weight of tissue (Canis familiaris [5]): 56 nM/g
- Wet weight of tissue (Canis familiaris [6]): 69 nM/g
- Wet weight of tissue (Canis familiaris [7]): 937 nM/g
- Wet weight of tissue (Canis familiaris [8]): 21 nM/g
- Wet weight of tissue (Canis familiaris [9]): 0 nM/g
- Wet weight of tissue (Canis familiaris [10]): 16 nM/g
- Wet weight of tissue (Canis familiaris [11]): 187 nM/g
- Wet weight of tissue (Canis familiaris [12]): 221 nM/g
- Wet weight of tissue (Canis familiaris [13]): 540 nM/g
- Wet weight of tissue (Canis familiaris [14]): 534 nM/g
- Wet weight of tissue (Canis familiaris [15]): 90 nM/g
- Wet weight of tissue (Canis familiaris [16]): 66 nM/g
- Wet weight of tissue (Canis familiaris [17]): 12 nM/g
- Stool output (Rattus norvegicus [18]): <3 g (350g of rat weight)-1
- Wet weight of tissue (Canis familiaris [19]): 0 nM/g
- Wet weight of tissue (Canis familiaris [20]): 12 nM/g
- Wet weight of tissue (Canis familiaris [21]): 7 nM/g
- Wet weight of tissue (Canis familiaris [22]): 23 nM/g
- Weight loss (Rattus norvegicus [23]): <5.3 g
- Reduction (Rattus norvegicus [24]): 59% and 74%
- Reduction (Rattus norvegicus [25]): 75% and 92%
- Reduction (Rattus norvegicus [26]): 55% and 92%
- Stool output (Rattus norvegicus [27]): 7.5 g (350g of rat weight)-1
- Stool output (Rattus norvegicus [28]): <0.6 g (350g of rat weight)-1
- Wet weight of tissue (Canis familiaris [29]): 7 nM/g

SMILES: CCNCCCCNCCCCNCCCCNCC [DIETHYLHOMOSPERMINE]
- Wet weight of tissue (Canis familiaris [30]): 34 nM/g
- Wet weight of tissue (Canis familiaris [31]): 275 nM/g
- Wet weight of tissue (Canis familiaris [32]): 751 nM/g
- Wet weight of tissue (Canis familiaris [33]): 108 nM/g
